In brackets after ≈: the same amount, converted by molar mass.
Columns and labels:
Assay in all cases: ≥ marks a high value that may be exact or a test limit, other limits are often not marked, values filed in µg/mL are converted to µM
[1] = system: Escherichia coli ATCC 25922
[2] = system: Staphylococcus aureus ATCC 25923
[3] = system: Staphylococcus aureus ATCC 29213
[4] = system: Pseudomonas aeruginosa ATCC 27853

| MIC [1] | MIC [2] | MIC [3] | MIC [4] | SMILES |
| --- | --- | --- | --- | --- |
| 9.3 µM (≈ 9.99 µg/mL) | 4.65 µM (≈ 5 µg/mL) |  | 18.6 µM (≈ 20 µg/mL) | NC(=O)[C@H](Cc1c[nH]c2ccccc12)NC(=O)[C@H](CCCN=C(N)N)NC(=O)[C@H](Cc1c[nH]c2ccccc12)NC(=O)[C@H](CCCN=C(N)N)NC(=O)[C@H](Cc1c[nH]c2ccccc12)NC(=O)[C@@H](N)Cc1c[nH]c2ccccc12 [WWRWRW] |
| 22 µM (≈ 32.3 µg/mL) | 22 µM (≈ 32.3 µg/mL) |  |  | CC(C)C[C@H](NC(=O)[C@H](CCCCN)NC(=O)CNC(=O)[C@H](CC(C)C)NC(=O)[C@H](CCCCN)NC(=O)[C@H](CCCCN)NC(=O)CNC(=O)[C@H](CC(C)C)NC(=O)[C@@H](N)CCCCN)C(=O)NCC(=O)N[C@@H](CCCCN)C(=O)N[C@@H](CCCCN)C(=O)N[C@@H](CC(C)C)C(=O)NCC(N)=O [KLGKKLGKLGKKLG] |
| 2.81 µM (≈ 4 µg/mL) |  |  |  | NCCCC[C@H](NC(=O)[C@H](Cc1c[nH]c2ccccc12)NC(=O)[C@H](Cc1c[nH]c2ccccc12)NC(=O)[C@H](CCCCN)NC(=O)[C@H](CCCCN)NC(=O)[C@H](Cc1c[nH]c2ccccc12)NC(=O)[C@@H](N)CCCCN)C(=O)N[C@@H](Cc1c[nH]c2ccccc12)C(=O)N[C@@H](Cc1ccccc1)C(N)=O [KWKKWWKWF] |
|  |  |  | 32 µM (≈ 43.6 µg/mL) | CC(C)C[C@H](NC(=O)[C@@H](NC(=O)[C@H](C)NC(=O)CNC(=O)[C@H](Cc1c[nH]c2ccccc12)NC(=O)[C@H](CC(N)=O)NC(=O)[C@@H](N)CC(C)C)C(C)C)C(=O)N[C@@H](CCCCN)C(=O)N[C@@H](Cc1cnc[nH]1)C(=O)N[C@H](C(=O)N[C@H](C(=O)N[C@@H](CCCCN)C(=O)O)C(C)C)C(C)C [LNWGAVLKHVVK] |
| 4 µM (≈ 7.05 µg/mL) |  |  |  | CC(C)C[C@H](NC(=O)[C@H](Cc1ccccc1)NC(=O)[C@H](C)NC(=O)[C@H](Cc1c[nH]c2ccccc12)NC(=O)[C@H](Cc1c[nH]c2ccccc12)NC(=O)[C@H](Cc1c[nH]c2ccccc12)NC(=O)[C@@H]1CCCN1C(=O)[C@H](Cc1ccccc1)NC(=O)[C@H](CCCCN)NC(=O)[C@H](CCCCN)NC(=O)[C@@H](N)C(C)C)C(=O)N[C@@H](CCCCN)C(=O)N[C@@H](CCCCN)C(N)=O [VKKFPWWWAFLKK] |

Second part, the compound before the results:

| SMILES | MIC [1] | MIC [2] | MIC [3] | MIC [4] |
| --- | --- | --- | --- | --- |
| C[C@H](NC(=O)[C@H](C)NC(=O)[C@H](CCCCN)NC(=O)[C@H](CCCCN)NC(=O)[C@H](C)NC(=O)[C@H](C)NC(=O)[C@H](CCCCN)NC(=O)[C@H](C)NC(=O)[C@H](C)NC(=O)[C@H](CCCCN)NC(=O)[C@H](CCCCN)NC(=O)[C@H](C)NC(=O)[C@H](C)NC(=O)[C@H](CCCCN)NC(=O)[C@H](C)NC(=O)[C@H](C)NC(=O)[C@H](CCCCN)NC(=O)[C@H](CCCCN)NC(=O)[C@H](C)NC(=O)[C@H](C)NC(=O)[C@@H](N)CCCCN)C(N)=O [KAAKKAAKAAKKAAKAAKKAA] | 8 µM (≈ 16.2 µg/mL) | 8 µM (≈ 16.2 µg/mL) |  |  |
| CC[C@H](C)[C@H](NC(=O)[C@H](CCCN=C(N)N)NC(=O)[C@H](CCC(N)=O)NC(=O)[C@@H](NC(=O)[C@@H](NC(=O)[C@H](CCCN=C(N)N)NC(=O)[C@H](CCCCN)NC(=O)[C@@H](N)Cc1ccccc1)[C@@H](C)CC)C(C)C)C(=O)N[C@@H](CCCCN)C(=O)N[C@@H](CC(=O)O)C(=O)N[C@@H](CC(N)=O)C(=O)N[C@@H](CC(C)C)C(=O)N[C@@H](CCCN=C(N)N)C(=O)O [FKRIVQRIKDNLR] | 20 µM (≈ 33.7 µg/mL) |  | > 40 µM |  |
| CC(C)[C@H](NC(=O)[C@@H]1CCCN1C(=O)[C@@H](N)Cc1ccccc1)C(=O)N[C@H](C(=O)N[C@@H](Cc1c[nH]c2ccccc12)C(=O)N[C@@H](CCCN=C(N)N)C(=O)N[C@H](C(=O)N[C@@H](CCCCN)C(=O)N[C@@H](Cc1c[nH]c2ccccc12)C(=O)N[C@@H](Cc1c[nH]c2ccccc12)C(=O)N[C@@H](CCCCN)C(=O)NCC(N)=O)[C@@H](C)O)[C@@H](C)O [FPVTWRTKWWKG] | 15.5 µM (≈ 24.7 µg/mL) | > 3.1 µM |  |  |
| CC[C@H](C)[C@H](NC(=O)CN)C(=O)NCC(=O)N[C@@H](CCCN=C(N)N)C(=O)N[C@@H](CCCCN)C(=O)N[C@@H](Cc1ccccc1)C(=O)N[C@@H](CC(C)C)C(=O)NCC(=O)NCC(=O)N[C@H](C(=O)N[C@@H](CCCCN)C(=O)N[C@H](C(=O)N[C@H](C(=O)N[C@@H](Cc1ccccc1)C(=O)N[C@@H](CCCN=C(N)N)C(=O)N[C@@H](CS)C(=O)NCC(=O)N[C@H](C(=O)N[C@@H](CCCCN)C(=O)N[C@@H](CC(=O)O)C(=O)N[C@@H](Cc1ccccc1)C(=O)N[C@@H](C)C(=O)N[C@@H](CO)C(=O)N[C@@H](CCCCN)C(=O)N[C@@H](Cc1cnc[nH]1)C(=O)N[C@@H](CC(C)C)C(=O)N[C@@H](Cc1ccc(O)cc1)C(N)=O)C(C)C)[C@@H](C)O)[C@@H](C)O)C(C)C [GIGRKFLGGVKTTFRCGVKDFASKHLY] | 150 µM (≈ 448 µg/mL) |  |  |  |
| CC[C@H](C)[C@H](NC(=O)CN)C(=O)N[C@@H](CCCCN)C(=O)N[C@@H](CC(=O)O)C(=O)N[C@@H](CC(C)C)C(=O)N[C@@H](CC(C)C)C(=O)N[C@@H](CCCCN)C(=O)NCC(=O)N[C@@H](C)C(=O)N[C@@H](C)C(=O)N[C@@H](CCCCN)C(=O)N[C@@H](C)C(=O)N[C@@H](CC(C)C)C(=O)N[C@H](C(=O)N[C@@H](CCCCN)C(=O)N[C@H](C(=O)N[C@H](C(=O)N[C@@H](CC(C)C)C(=O)N[C@@H](Cc1ccccc1)C(N)=O)C(C)C)[C@@H](C)O)C(C)C [GIKDLLKGAAKALVKTVLF] | 3 µM (≈ 5.95 µg/mL) |  |  |  |
| CSCC[C@H](NC(=O)[C@H](CC(N)=O)NC(=O)[C@H](Cc1ccccc1)NC(=O)CNC(=O)[C@H](CC(=O)O)NC(=O)[C@H](CC(C)C)NC(=O)[C@H](CCCCN)NC(=O)[C@H](CCSC)NC(=O)[C@H](CCC(=O)O)NC(=O)[C@@H](N)CC(=O)O)C(=O)N[C@@H](Cc1cnc[nH]1)C(=O)N[C@@H](CC(C)C)C(=O)N[C@@H](CCC(=O)O)C(N)=O [DEMKLDGFNMHLE] | 20 µM (≈ 31.6 µg/mL) | 40.5 µM (≈ 63.9 µg/mL) |  |  |
| CC(C)[C@H](NC(=O)[C@H](C)NC(=O)[C@@H](N)Cc1ccccc1)C(=O)N[C@H](C(=O)N[C@@H](Cc1c[nH]c2ccccc12)C(=O)N[C@@H](C)C(=O)N[C@H](C(=O)N[C@@H](CCCCN)C(=O)N[C@@H](Cc1c[nH]c2ccccc12)C(=O)N[C@@H](Cc1c[nH]c2ccccc12)C(=O)N[C@@H](CCCCN)C(=O)NCC(N)=O)[C@@H](C)O)[C@@H](C)O [FAVTWATKWWKG] | > 125 µM | 100 µM (≈ 148 µg/mL) |  |  |
| CC[C@H](C)[C@H](NC(=O)[C@H](CCCN=C(N)N)NC(=O)[C@H](CCCCN)NC(=O)[C@@H](NC(=O)[C@@H](NC(=O)CN)C(C)C)C(C)C)C(=O)N[C@@H](CCCCN)C(=O)N[C@H](C(=O)N[C@H](C(=O)N[C@H](C(N)=O)C(C)C)C(C)C)[C@@H](C)O [GVVKRIKTVV] | > 200 µM |  |  |  |
| CC(C)C[C@H](NC(=O)[C@@H](NC(=O)[C@H](CCCCN)NC(=O)CNC(=O)[C@H](Cc1ccccc1)NC(=O)[C@@H](NC(=O)[C@H](CC(=O)O)NC(=O)CNC(=O)[C@H](Cc1c[nH]c2ccccc12)NC(=O)CN)[C@@H](C)O)C(C)C)C(=O)N[C@@H](CCCCN)C(=O)N[C@@H](CC(N)=O)C(=O)N[C@@H](Cc1ccccc1)C(=O)N[C@@H](C)C(=O)N[C@@H](CCCCN)C(=O)N[C@H](C(=O)N[C@@H](C)C(=O)NCC(=O)N[C@H](C(=O)N[C@@H](CCCCN)C(=O)N[C@@H](C)C(=O)N[C@@H](C)C(=O)N[C@@H](CCCCN)C(=O)O)C(C)C)C(C)C [GWGDTFGKVLKNFAKVAGVKAAK] |  | > 64 µM |  |  |
| CC[C@H](C)[C@H](NC(=O)[C@H](CCCN=C(N)N)NC(=O)[C@H](CCCCN)NC(=O)[C@H](CC(C)C)NC(=O)[C@H](CC(C)C)NC(=O)CN)C(=O)N[C@@H](CCCCN)C(N)=O [GLLKRIK] | > 33.9 µM | > 33.9 µM |  |  |
